The subject of assay [1] is APAE006 in the presence of 8 micrograms per milliliter of polymyxin B nonapeptide. In kind it is cell-based, P. aeruginosa. Particulars: APAE006 with 8 micrograms per milliliter polymyxin B nonapeptide. Summed up: (§1)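 Broth microdilution (CLSI); CA-MHB; 3×10^5–7×10^5 CFU/mL final; 2-fold dilutions; 35° C., ambient air, 18-24 h. APAE006 lacks all active efflux pumps.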
The subject of assay [2] is APAE006 (strain of P. aeruginosa in which all efflux pumps are inactivated). In words: microbe, parasite or virus in culture. The format is cell-based. As to conditions: Pseudomonas aeruginosa, read-out: MIC APAE006, APAE006, all efflux pumps inactivated. A digest of the protocol: as §1
Assay [3] relates to ASAU001 (laboratory strain of S. aureus, ATCC29213). Nature of the assay: MIC broth microdilution, ASAU001. The format is cell-based. Particulars: Staphylococcus aureus, ATCC29213, read-out: MIC ASAU001. Summed up: (§2)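 Growth inhibition was scored by CLSI broth microdilution using cation-adjusted Mueller-Hinton broth and a final inoculum between 3×10^5 and 7×10^5 CFU/mL, incubated 18-24 hours at 35° C.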

In assay [4] the test system is AABA1060 (clinical isolate of Acinetobacter baumannii). Nature of the assay: MIC broth microdilution, AABA1060. In kind it is cell-based. As to conditions: Acinetobacter baumannii, read-out: MIC AABA1060. A digest of the protocol:
as §2

Assay [5] concerns AECO063 (ATCC25922 bearing an acrAB mutation). Nature of the assay: microbe, parasite or virus in culture. The format is cell-based, E. coli. As to conditions: Escherichia coli, ATCC25922, read-out: MIC AECO063. A digest of the protocol: as §2
The next assay concerns AECO001 (ATCC25922). Nature of the assay: MIC broth microdilution, AECO001. As to conditions: for MIC: Escherichia coli. The format is cell-based, E. coli. Summed up:
as §2

Another assay deals with APAE001 (ATCC27853). In words: MIC broth microdilution, APAE001. In kind it is cell-based, P. aeruginosa. Particulars: Pseudomonas aeruginosa, ATCC27853, read-out: MIC APAE001, APAE001 (ATCC27853). Summed up:
as §2

[6] abbreviates: ATCC25922, read-out: MIC AECO001.
The mark [7] stands for this setting: ATCC25922, read-out: MIC AECO001 HSA AGP.

Experimental findings from US9617256B2 (priority 2007, dated 2017) are described below.

In brackets after ≈: the same amount, converted by molar mass. Like-named read-outs stand apart in the source and are kept apart here.

For `CC(C)(O)[C@H](NC(=O)c1ccc(C#CC#Cc2cncnc2)cc1)C(=O)NO` [Example 89-7], the “MIC APAE006 + PMBN” value in assay [1] is on record as “A (MIC's of 2.0 μg/mL or less = A)”. Further, the MIC in assay [2] was less than 2 µg/mL; in assay [3], 16 to 64 µg/mL (≈ 42.3 to 169 µM); in assay [4] it was 16 to 64 µg/mL (≈ 42.3 to 169 µM); in assay [5] it was less than 2 µg/mL; in the assay with AECO001 (ATCC25922) (setting [6]), 2 to 16 µg/mL (≈ 5.29 to 42.3 µM); in the assay on AECO001 (ATCC25922) (setting [7]), 2 to 16 µg/mL (≈ 5.29 to 42.3 µM). Also, the MIC in the assay with APAE001 (ATCC27853) fell in the range of 2 to 16 µg/mL (≈ 5.29 to 42.3 µM).

Turning to `CCC#CC#Cc1ccc(C(=O)N[C@H](C(=O)NO)C(C)(C)N)cc1` [Example 91-1, N—((S)-2-Amino-1-hydroxycarbamoyl-2-methyl-propyl)-4-hexa-1,3-diynyl-benzamide], the “MIC APAE006 + PMBN” value in assay [1] was “A (MIC's of 2.0 μg/mL or less = A)”. Further, the MIC in assay [2] was less than 2 µg/mL; in assay [3], 2 to 16 µg/mL (≈ 6.11 to 48.9 µM); in assay [4], less than 2 µg/mL; in assay [5], less than 2 µg/mL; with AECO001 (ATCC25922) (setting [6]), less than 2 µg/mL; in the assay on AECO001 (ATCC25922) (setting [7]) it was less than 2 µg/mL. Besides, in the assay with APAE001 (ATCC27853), the MIC was less than 2 µg/mL. For the same compound, in the assay on AECO001 (ATCC25922) (MIC of paired compound with A = —CHCH3NH2 divided by MIC of compound with A = —C(CH3)2NH2, n=2 data, pairs identical except for the A moiety), the “Ratio of MICs on AECO001 [Cpd (A = —CHCH3NH2)/Cpd (A = —C(CH3)2NH2)]” value came out at 7.2.

Turning to `COc1ccc(C#CC#Cc2ccc(C(=O)N[C@H](C(=O)NO)[C@@H](C)N)cc2)cc1` [Example 82-1, N-((1S,2R)-2-Amino-1-hydroxycarbamoyl-propyl)-4-[4-(4-methoxy-phenyl)-buta-1,3-diynyl]-benzamide], in assay [1], the “MIC APAE006 + PMBN” value was “A (MIC's of 2.0 μg/mL or less = A)”. The MIC was less than 2 µg/mL in assay [2]; 16 to 64 µg/mL (≈ 40.9 to 164 µM) in assay [3]; 2 to 16 µg/mL (≈ 5.11 to 40.9 µM) in assay [4]; less than 2 µg/mL in assay [5]; less than 2 µg/mL in the assay on AECO001 (ATCC25922) (setting [6]); 2 to 16 µg/mL (≈ 5.11 to 40.9 µM) in the assay with AECO001 (ATCC25922) (setting [7]). For the same compound, the MIC in the assay on APAE001 (ATCC27853) fell in the range of 2 to 16 µg/mL (≈ 5.11 to 40.9 µM).

For the compound `CC(C)(N)[C@H](NC(=O)c1ccc(C#CC#Cc2cncs2)cc1)C(=O)NO` [Example 88-16], the “MIC APAE006 + PMBN” value in assay [1] is given as “A (MIC's of 2.0 μg/mL or less = A)”. Also, the MIC is less than 2 µg/mL in assay [2]; 16 to 64 µg/mL (≈ 41.8 to 167 µM) in assay [3]; less than 2 µg/mL in assay [4]; less than 2 µg/mL in assay [5]; less than 2 µg/mL in the assay with AECO001 (ATCC25922) (setting [6]); 2 to 16 µg/mL (≈ 5.23 to 41.8 µM) in the assay with AECO001 (ATCC25922) (setting [7]). For the same compound, in the assay on APAE001 (ATCC27853), the MIC was less than 2 µg/mL.

Turning to `O=C(NC(C(=O)NO)C1(O)CC1)c1ccc(C#Cc2ccc(CN3CCOCC3)cc2)cc1` (centres unmarked) [Example 137-24], the “MIC APAE006 + PMBN” value in assay [1] is “A (MIC's of 2.0 μg/mL or less = A)”. Besides, the MIC in assay [2] is less than 2 µg/mL; in assay [3] it was 16 to 64 µg/mL (≈ 35.6 to 142 µM); in assay [4], 2 to 16 µg/mL (≈ 4.45 to 35.6 µM); in assay [5] it was less than 2 µg/mL; with AECO001 (ATCC25922) (setting [6]) it was less than 2 µg/mL; in the assay with AECO001 (ATCC25922) (setting [7]), 2 to 16 µg/mL (≈ 4.45 to 35.6 µM). Moreover, in the assay with APAE001 (ATCC27853), the MIC was in the range of 2 to 16 µg/mL (≈ 4.45 to 35.6 µM).

`C[C@@H](N)[C@H](NC(=O)c1ccc(/C=C/C#CC2CCCCC2)cc1)C(=O)NO` [Example 114-17]: the “MIC APAE006 + PMBN” value in assay [1] was “A (MIC's of 2.0 μg/mL or less = A)”. Further, the MIC in assay [2] was less than 2 µg/mL; in assay [3], 2 to 16 µg/mL (≈ 5.41 to 43.3 µM); in assay [4], 2 to 16 µg/mL (≈ 5.41 to 43.3 µM); in assay [5], less than 2 µg/mL; in the assay with AECO001 (ATCC25922) (setting [6]), less than 2 µg/mL; in the assay with AECO001 (ATCC25922) (setting [7]) it was 2 to 16 µg/mL (≈ 5.41 to 43.3 µM). For the same compound, the MIC in the assay with APAE001 (ATCC27853) was 2 to 16 µg/mL (≈ 5.41 to 43.3 µM).

Turning to `Cn1cc(C#CC#Cc2ccc(C(=O)N[C@H](C(=O)NO)C(C)(C)O)cc2)cn1` [Example 89-3], in assay [1], the “MIC APAE006 + PMBN” value was “A (MIC's of 2.0 μg/mL or less = A)”. Also, the MIC in assay [2] is less than 2 µg/mL; in assay [3], 16 to 64 µg/mL (≈ 42.1 to 168 µM); in assay [4] it was 2 to 16 µg/mL (≈ 5.26 to 42.1 µM); in assay [5] it was less than 2 µg/mL; in the assay on AECO001 (ATCC25922) (setting [6]), less than 2 µg/mL; with AECO001 (ATCC25922) (setting [7]) it was less than 2 µg/mL. For the same compound, in the assay on APAE001 (ATCC27853), the MIC is less than 2 µg/mL.

`C[C@@H](N)[C@H](NC(=O)c1ccc(C#Cc2ccc(CN3CCC(F)CC3)cc2)cc1)C(=O)NO` [Example 115-1, N-((2S,3R)-3-amino-1-(hydroxyamino)-1-oxobutan-2-yl)-4-((4-((4-fluoropiperidin-1-yl)methyl)phenyl)ethynyl)benzamide]: the “MIC APAE006 + PMBN” value in assay [1] was “A (MIC's of 2.0 μg/mL or less = A)”. Also, the MIC in assay [2] was less than 2 µg/mL; in assay [3] it was more than 64 µg/mL; in assay [4] it was 2 to 16 µg/mL (≈ 4.42 to 35.4 µM); in assay [5] it was less than 2 µg/mL; with AECO001 (ATCC25922) (setting [6]), less than 2 µg/mL; in the assay on AECO001 (ATCC25922) (setting [7]) it was 2 to 16 µg/mL (≈ 4.42 to 35.4 µM). In the assay on APAE001 (ATCC27853), the MIC lay within 2 to 16 µg/mL (≈ 4.42 to 35.4 µM).
